Experimental data published in patent US10278969B2, “Pharmaceutical dosage forms” (Novartis AG, priority 2013, dated 2019).

Assay: Chemical stability: hydrolysis degradation of the Compound on processing
Format: physicochemical
Details: urea bond cleavage into aniline and aminopyrimidine degradants
Excerpt: In view of the above mentioned difficulties, the inventors tried to compact the voluminous Compound together with excipients without the use of aqueous media. […] There could be various root causes for the degradation problem. The inventor had run numerous experimental trials to identify the cause.

CCN1CCN(c2ccc(Nc3cc(N(C)C(=O)Nc4c(Cl)c(OC)cc(OC)c4Cl)ncn3)cc2)CC1 [the Compound, 3-(2,6-Dichloro-3,5-dimethoxy-phenyl)-1-{6-[4-(4-ethyl-piperazin-1-yl)-phenylamino]-pyrimidin-4-yl}-1-methyl-urea]
Chemical stability (hydrolysis degradation products): prone to hydrolysis
